Measurements taken from patent US3941850A, “α,α,α',α'-TETRAKIS(4-HYDROXY-3,5-DISUBSTITUTED PHENYL)XYLENE” (The Quaker Oats Company, priority 1974, dated 1976).
One block for each compound: values may come before it.

How the values were obtained:
[1] = Antioxidant evaluation in cis-polyisoprene (IR carbonyl band, film in oven); settings: 130°C oven, 0.100 g antioxidant, until carbonyl band exceeded 6 cm
Protocol: A number of candidate antioxidants were evaluated in cis-polyisoprene. Cis-polyisoprene was cut up into small pieces and dissolved overnight in a rapidly stirred solution of 500 ml of toluene. If the antioxidant was readily soluble in toluene, 0.100 g was then added to the cis-polyisoprenetoluene solution and stirred until it dissolved. If the antioxidant was not readily soluble in toluene it was dissolved in a small amount of an appropriate solvent and then added to the toluene solution. A sample of the solution was then taken up in a capillary dropper and 15 drops were placed on a circular sodium chloride plate, 1 inch in diameter. The plate was then put in a 130°C. oven for a few minutes to evaporate the toluene.
An infrared spectrum was run of the film on the plate. The plate was then put back in the oven. Every hour it was removed and another infrared spectrum was run. This procedure was repeated until appreciable oxidation had taken place as indicated by the appearance of a carbonyl band at 1700-1750 cm^^-1. The test was ended when the carbonyl band exceded 6 cm on a Perkin Elmer Infrared Spectophotometer, Model 710. This length is approximately equal to the length of the peak at 1450 cm^^-1.

[2] = Heat aging test of polypropylene film; settings: 140°C, 5 mil film, 0.1 % by weight tetraphenolic derivative, 0 synergist
Protocol: A number of candidate stabilizers were incorporated in 5 mil thick samples of polypropylene film, and the resulting materials evaluated by heat aging the films. In some of the tests where indicated dilaurylthiodipropionate was added as synergist.
In the heat aging test, polypropylene film samples 5 mil in thickness were maintained in an oven at 140°C. Each sample was tested for loss of structural integrity. The number of hours shown in the table are the total elapsed hours before the film cracked or embrittled when flexed. The film was embrittled when it crumbled to a powder.

[3] = Solubility in ethanol and toluene; type: physicochemical; settings: 27°C

SMILES: Cc1cc(C(c2ccc(C(c3cc(C)c(O)c(C)c3)c3cc(C)c(O)c(C)c3)cc2)c2cc(C)c(O)c(C)c2)cc(C)c1O [Test 12]
Maximum Protection [1]: 8 h

SMILES: Cc1cc(C(c2ccc(C(c3cc(C)c(O)cc3C)c3cc(C)c(O)cc3C)cc2)c2cc(C)c(O)cc2C)c(C)cc1O [Test 13]
Maximum Protection [1]: 3 h

SMILES: Cc1cc(C(c2ccc(C(c3cc(C)c(O)c(C(C)(C)C)c3)c3cc(C)c(O)c(C(C)(C)C)c3)cc2)c2cc(C)c(O)c(C(C)(C)C)c2)cc(C(C)(C)C)c1O [Test 14]
Maximum Protection [1]: 13 h

SMILES: Cc1cc(O)c(C(C)(C)C)cc1C(c1ccc(C(c2cc(C(C)(C)C)c(O)cc2C)c2cc(C(C)(C)C)c(O)cc2C)cc1)c1cc(C(C)(C)C)c(O)cc1C [Test 15]
Maximum Protection [1]: 6 h

SMILES: CC(C)c1cc(C(c2ccc(C(c3cc(C(C)C)c(O)c(C(C)C)c3)c3cc(C(C)C)c(O)c(C(C)C)c3)cc2)c2cc(C(C)C)c(O)c(C(C)C)c2)cc(C(C)C)c1O [Test 16]
Maximum Protection [1]: 7 h

SMILES: CCC(C)c1cc(C(c2ccc(C(c3cc(C(C)CC)c(O)c(C(C)CC)c3)c3cc(C(C)CC)c(O)c(C(C)CC)c3)cc2)c2cc(C(C)CC)c(O)c(C(C)CC)c2)cc(C(C)CC)c1O (centres unmarked) [Test 17]
Maximum Protection [1]: 7 h

SMILES: CC(C)Cc1cc(C(c2ccc(C(c3cc(CC(C)C)c(O)c(CC(C)C)c3)c3cc(CC(C)C)c(O)c(CC(C)C)c3)cc2)c2cc(CC(C)C)c(O)c(CC(C)C)c2)cc(CC(C)C)c1O [Test 18]
Maximum Protection [1]: 6 h

SMILES: CC(C)(C)c1cc(C(c2ccc(C(c3cc(C(C)(C)C)c(O)c(C(C)(C)C)c3)c3cc(C(C)(C)C)c(O)c(C(C)(C)C)c3)cc2)c2cc(C(C)(C)C)c(O)c(C(C)(C)C)c2)cc(C(C)(C)C)c1O [Test 19]
Maximum Protection [1]: 16 h

SMILES: CCCCC(CC)Cc1cc(C(c2ccc(C(c3cc(CC(CC)CCCC)c(O)c(CC(CC)CCCC)c3)c3cc(CC(CC)CCCC)c(O)c(CC(CC)CCCC)c3)cc2)c2cc(CC(CC)CCCC)c(O)c(CC(CC)CCCC)c2)cc(CC(CC)CCCC)c1O (centres unmarked) [Test 20]
Maximum Protection [1]: 3 h

SMILES: Oc1c(Cc2ccccc2)cc(C(c2ccc(C(c3cc(Cc4ccccc4)c(O)c(Cc4ccccc4)c3)c3cc(Cc4ccccc4)c(O)c(Cc4ccccc4)c3)cc2)c2cc(Cc3ccccc3)c(O)c(Cc3ccccc3)c2)cc1Cc1ccccc1 [Test 21]
Maximum Protection [1]: 7 h

SMILES: Cc1ccc(Cc2cc(C(c3ccc(C(c4cc(Cc5ccc(C)cc5)c(O)c(Cc5ccc(C)cc5)c4)c4cc(Cc5ccc(C)cc5)c(O)c(Cc5ccc(C)cc5)c4)cc3)c3cc(Cc4ccc(C)cc4)c(O)c(Cc4ccc(C)cc4)c3)cc(Cc3ccc(C)cc3)c2O)cc1 [Test 22]
Maximum Protection [1]: 6 h

SMILES: Cc1cc(C(c2ccc(C(c3cc(C)c(O)c(C)c3)c3cc(C)c(O)c(C)c3)cc2)c2cc(C)c(O)c(C)c2)cc(C)c1O [Test 24]
Oven Hours, Cracked [2]: 31 h
Oven Hours, Embrittled [2]: 31 h

SMILES: Cc1cc(C(c2ccc(C(c3cc(C)c(O)cc3C)c3cc(C)c(O)cc3C)cc2)c2cc(C)c(O)cc2C)c(C)cc1O [Test 26]
Oven Hours, Cracked [2]: 30 h
Oven Hours, Embrittled [2]: 30 h

Solubility, Ethanol [3]: 3 g/100 ml
Solubility, Toluene [3]: < .17 g/100 ml
SMILES: Cc1cc(C(c2ccc(C(c3cc(C)c(O)c(C)c3)c3cc(C)c(O)c(C)c3)cc2)c2cc(C)c(O)c(C)c2)cc(C)c1O [Test 28]

Solubility, Ethanol [3]: < .14 g/100 ml
Solubility, Toluene [3]: < .17 g/100 ml
SMILES: Cc1cc(C(c2ccc(C(c3cc(C)c(O)cc3C)c3cc(C)c(O)cc3C)cc2)c2cc(C)c(O)cc2C)c(C)cc1O [Test 29]

Solubility, Ethanol [3]: > 9 g/100 ml
Solubility, Toluene [3]: > 9 g/100 ml
SMILES: Cc1cc(C(c2ccc(C(c3cc(C)c(O)c(C(C)(C)C)c3)c3cc(C)c(O)c(C(C)(C)C)c3)cc2)c2cc(C)c(O)c(C(C)(C)C)c2)cc(C(C)(C)C)c1O [Test 30]

Solubility, Ethanol [3]: > 9 g/100 ml
Solubility, Toluene [3]: < .17 g/100 ml
SMILES: Cc1cc(O)c(C(C)(C)C)cc1C(c1ccc(C(c2cc(C(C)(C)C)c(O)cc2C)c2cc(C(C)(C)C)c(O)cc2C)cc1)c1cc(C(C)(C)C)c(O)cc1C [Test 31]
